Assay results as given in patent US9617256B2 (priority 2007, dated 2017).
≈ marks a conversion by molar mass, not a printed value.

What was measured:
[1] = system: APAE006 in the presence of 8 micrograms per milliliter of polymyxin B nonapeptide; assay type: cell-based, P. aeruginosa; settings: in the presence of 8 micrograms per milliliter of polymyxin B nonapeptide
Method in brief: (§1)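 Inocula prepared from 0.5 McFarland suspensions (final 3×10^5–7×10^5 CFU/mL) were added to 2-fold drug dilution series in cation-adjusted Mueller-Hinton broth. Plates stood 18-24 hours at 35° C. under ambient air.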

[2] = system: APAE006 (strain of P. aeruginosa in which all efflux pumps are inactivated); assay: microbe, parasite or virus in culture; assay type: cell-based; settings: for MIC: Pseudomonas aeruginosa, read-out: MIC APAE006, P. aeruginosa, all efflux pumps inactivated
Method in brief: as §1

[3] = system: ASAU001 (laboratory strain of S. aureus, ATCC29213); assay: MIC broth microdilution, ASAU001; assay type: cell-based; settings: for MIC: Staphylococcus aureus, ATCC29213, read-out: MIC ASAU001
Method in brief: (§2)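 MICs come from broth microdilution in cation-adjusted Mueller-Hinton broth, final inoculum 3×10^5–7×10^5 CFU/mL, 18-24 hours at 35° C. Levofloxacin and QC strains served as assay controls.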

[4] = system: AECO063 (ATCC25922 bearing an acrAB mutation); assay: microbe, parasite or virus in culture; assay type: cell-based, E. coli; settings: for MIC: Escherichia coli, ATCC25922, read-out: MIC AECO063
Method in brief: as §2

AECO001 (ATCC25922) = assay: MIC broth microdilution, AECO001; assay type: cell-based, E. coli; settings: for MIC: Escherichia coli, ATCC25922, read-out: MIC AECO001
Method in brief: as §2

[5] = system: AABA1060 (clinical isolate of Acinetobacter baumannii); assay: MIC broth microdilution, AABA1060; assay type: cell-based; settings: for MIC: Acinetobacter baumannii, read-out: MIC AABA1060
Method in brief: as §2

AECO001 HSA AGP = assay: MIC broth microdilution, AECO001 HSA AGP; assay type: cell-based, E. coli; settings: for MIC: Escherichia coli
Method in brief: as §2

APAE001 (ATCC27853) = assay: MIC broth microdilution, APAE001; assay type: cell-based, P. aeruginosa; settings: for MIC: Pseudomonas aeruginosa, ATCC27853, read-out: MIC APAE001, APAE001 is ATCC27853
Method in brief: as §2

| SMILES | MIC APAE006 + PMBN [1] | MIC [2] | MIC [3] | MIC [4] | MIC (AECO001 (ATCC25922)) | MIC [5] | MIC (AECO001 HSA AGP) | MIC (APAE001 (ATCC27853)) | MIC APAE006 ([2]; P. aeruginosa, all efflux pumps inactivated) | MIC ASAU001 ([3]; S. aureus ATCC29213) | MIC AECO063 ([4]; ATCC25922 bearing an acrAB mutation) | MIC AECO001 (AECO001 (ATCC25922); AECO001 is ATCC25922) | MIC AABA1060 ([5]; clinical isolate of Acinetobacter baumannii) | MIC AECO001 HSA AGP (AECO001 HSA AGP) | MIC APAE001 (APAE001 (ATCC27853); APAE001 is ATCC27853) |
| --- | --- | --- | --- | --- | --- | --- | --- | --- | --- | --- | --- | --- | --- | --- | --- |
| C[C@@H](O)[C@H](NC(=O)c1ccc(N2CCN(c3ccc(CN4CCOCC4)cc3)CC2)cc1)C(=O)NO [Example 43-7, N-((1S,2R)-2-Hydroxy-1-hydroxycarbamoyl-propyl)-4-[4-(4-morpholin-4-ylmethyl-phenyl)-piperazin-1-yl]-benzamide] | A (MIC's of 2.0 μg/mL or less = A) | < 2 µg/mL | > 64 µg/mL | 16 to 64 µg/mL (≈ 32.2 to 129 µM) | > 64 µg/mL | > 64 µg/mL | > 64 µg/mL | 16 to 64 µg/mL (≈ 32.2 to 129 µM) |  |  |  |  |  |  |  |
| O=C(CNC1CC1)NC[C@H](NC(=O)c1ccc(/C=C/C#Cc2ccc(CO)cc2)cc1)C(=O)NO [Example 113-11] | A (MIC's of 2.0 μg/mL or less = A) | < 2 µg/mL | > 64 µg/mL | < 2 µg/mL | < 2 µg/mL | 16 to 64 µg/mL (≈ 33.6 to 134 µM) | 16 to 64 µg/mL (≈ 33.6 to 134 µM) | 2 to 16 µg/mL (≈ 4.2 to 33.6 µM) |  |  |  |  |  |  |  |
| O=CN(O)CC(CO)NC(=O)c1ccc(C#Cc2ccc(CN3CCOCC3)cc2)cc1 (stereo not drawn) [Example 128-1, N-[2-(Formyl-hydroxy-amino)-1-hydroxymethyl-ethyl]-4-(4-morpholin-4-yl-methyl-phenylethynyl)-benzamide] | C (MIC's of greater than 16.0 μg/mL to 64.0 μg/mL = C) |  |  |  |  |  |  |  | C (MIC's of greater than 16.0 μg/mL to 64.0 μg/mL = C) | C (MIC's of greater than 16.0 μg/mL to 64.0 μg/mL = C) | C (MIC's of greater than 16.0 μg/mL to 64.0 μg/mL = C) | C (MIC's of greater than 16.0 μg/mL to 64.0 μg/mL = C) | C (MIC's of greater than 16.0 μg/mL to 64.0 μg/mL = C) | C (MIC's of greater than 16.0 μg/mL to 64.0 μg/mL = C) | C (MIC's of greater than 16.0 μg/mL to 64.0 μg/mL = C) |
| C[C@@H](N)[C@H](NC(=O)c1ccc(C#Cc2ccc(CNCC(F)F)cc2)cc1)C(=O)NO [Example 119-1, N-((1S,2R)-2-Amino-1-hydroxycarbamoyl-propyl)-4-{4-[(2,2-difluoro-ethylamino)-methyl]-phenylethynyl}-benzamide] | A (MIC's of 2.0 μg/mL or less = A) | < 2 µg/mL | 16 to 64 µg/mL (≈ 37.2 to 149 µM) | < 2 µg/mL | < 2 µg/mL | 2 to 16 µg/mL (≈ 4.65 to 37.2 µM) | 2 to 16 µg/mL (≈ 4.65 to 37.2 µM) | < 2 µg/mL |  |  |  |  |  |  |  |
| O=C(NC(C(=O)NO)C1CCNC1)c1ccc(C#Cc2ccc(CN3CCOCC3)cc2)cc1 (stereo not drawn) [Example 64-7, N-(hydroxycarbamoyl-pyrrolidin-3-yl-methyl)-4-(4-morpholin-4-ylmethyl-phenylethynyl)-benzamide] | A (MIC's of 2.0 μg/mL or less = A) | < 2 µg/mL | > 64 µg/mL | < 2 µg/mL | 2 to 16 µg/mL (≈ 4.32 to 34.6 µM) | 16 to 64 µg/mL (≈ 34.6 to 138 µM) | 16 to 64 µg/mL (≈ 34.6 to 138 µM) | 2 to 16 µg/mL (≈ 4.32 to 34.6 µM) |  |  |  |  |  |  |  |
| C[C@H](O)[C@H](NC(=O)c1ccc(C#C/C=C/c2ccc(CN3CCOCC3)cc2)cc1)C(=O)NO [Example 96-2] | A (MIC's of 2.0 μg/mL or less = A) | < 2 µg/mL | 16 to 64 µg/mL (≈ 34.5 to 138 µM) | < 2 µg/mL | < 2 µg/mL | 2 to 16 µg/mL (≈ 4.31 to 34.5 µM) | 2 to 16 µg/mL (≈ 4.31 to 34.5 µM) | 2 to 16 µg/mL (≈ 4.31 to 34.5 µM) |  |  |  |  |  |  |  |
| C[C@H](N)[C@H](NC(=O)c1ccc(C#Cc2ccc(CO)cc2)cc1)C(=O)NO [Example 133-4] | A (MIC's of 2.0 μg/mL or less = A) | < 2 µg/mL | > 64 µg/mL | < 2 µg/mL | 2 to 16 µg/mL (≈ 5.44 to 43.5 µM) | > 64 µg/mL | 16 to 64 µg/mL (≈ 43.5 to 174 µM) | < 2 µg/mL |  |  |  |  |  |  |  |
| C[C@@H](N)[C@H](NC(=O)c1ccc(/C=C/C#Cc2ccccc2Cl)cc1)C(=O)NO [Example 114-5] | A (MIC's of 2.0 μg/mL or less = A) | < 2 µg/mL | 2 to 16 µg/mL (≈ 5.03 to 40.2 µM) | < 2 µg/mL | < 2 µg/mL | < 2 µg/mL | 2 to 16 µg/mL (≈ 5.03 to 40.2 µM) | 2 to 16 µg/mL (≈ 5.03 to 40.2 µM) |  |  |  |  |  |  |  |
| CC(C)(O)[C@H](NC(=O)c1ccc(/C=C/C#Cc2ccc(CNC3CC3)cc2)cc1)C(=O)NO [Example 113-5] | A (MIC's of 2.0 μg/mL or less = A) | < 2 µg/mL | 16 to 64 µg/mL (≈ 35.8 to 143 µM) | < 2 µg/mL | < 2 µg/mL | < 2 µg/mL | < 2 µg/mL | < 2 µg/mL |  |  |  |  |  |  |  |
